Assay results published in ChEMBL document CHEMBL3603736, “3-Substituted pyrazoles and 4-substituted triazoles as inhibitors of human 15-lipoxygenase-1” (Bioorg Med Chem Lett, 2015).
Converted amounts (≈) assume the structure as drawn. The source made the active and inactive calls. The calls are words filed in the database; no cut-off is given here.

Assays:
[1] = target: T1, Polyunsaturated fatty acid lipoxygenase ALOX15 (Homo sapiens, UniProt P16050); conditions: l1236
T1 sequence (P16050 whole entry): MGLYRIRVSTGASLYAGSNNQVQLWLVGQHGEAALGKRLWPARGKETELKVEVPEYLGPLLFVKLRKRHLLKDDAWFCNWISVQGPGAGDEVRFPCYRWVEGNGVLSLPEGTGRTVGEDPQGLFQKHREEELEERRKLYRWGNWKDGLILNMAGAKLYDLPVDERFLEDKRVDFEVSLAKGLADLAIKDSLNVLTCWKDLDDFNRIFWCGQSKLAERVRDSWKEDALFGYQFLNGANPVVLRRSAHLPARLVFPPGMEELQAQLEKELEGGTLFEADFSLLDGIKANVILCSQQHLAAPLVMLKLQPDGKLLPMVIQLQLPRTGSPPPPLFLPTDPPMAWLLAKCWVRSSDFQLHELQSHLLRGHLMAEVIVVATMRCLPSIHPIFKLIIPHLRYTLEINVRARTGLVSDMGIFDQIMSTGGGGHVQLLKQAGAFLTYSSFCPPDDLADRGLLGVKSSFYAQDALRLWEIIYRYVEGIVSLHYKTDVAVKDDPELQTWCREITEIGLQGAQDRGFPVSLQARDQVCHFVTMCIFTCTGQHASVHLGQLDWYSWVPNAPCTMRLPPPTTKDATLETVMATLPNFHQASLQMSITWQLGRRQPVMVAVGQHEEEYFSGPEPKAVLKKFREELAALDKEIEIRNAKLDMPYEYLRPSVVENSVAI
Description: (§1) Inhibition of 15-LOX-1 in human L1236 cells assessed as reduction in conversion of arachidonic acid to 15-HETE pre-incubated 5 min before arachidonic acid substrate addition by HPLC-UV spectroscopy

[2] = target: T1, Polyunsaturated fatty acid lipoxygenase ALOX15; conditions: sf9
Description: (§2) Inhibition of human 15-LOX-1 expressed in Sf9 cells assessed as reduction in conversion of arachidonic acid to 15-HETE pre-incubated 5 min before arachidonic acid substrate addition by HPLC-UV spectroscopy

[3] = target: T1, Polyunsaturated fatty acid lipoxygenase ALOX15
Description: as §1

[4] = Aqueous solubility in pH 2.0 buffer; format: physicochemical
[5] = tested on: Caco-2; experiment: Permeability in human Caco2 cells; format: ADME, cell-based
[6] = tested on: Escherichia coli; experiment: Genotoxicity in Escherichia coli by SOS/umu test; format: toxicity, organism-based
[7] = target: T2, Cytochrome P450 2C9 (Homo sapiens, UniProt P11712); experiment: Inhibition of human CYP2C9 at 10 uM; format: ADME; conditions: 10 µM
[8] = target: T1, Polyunsaturated fatty acid lipoxygenase ALOX15; remark: listed apart in the source
Description: as §2

[9] = target: T3, Cytochrome P450 2C19 (Homo sapiens, UniProt P33261); experiment: Inhibition of human CYP2C19 at 10 uM; format: ADME; conditions: 10 µM
[10] = Half life in human microsomes; format: ADME, Microsome
[11] = Intrinsic clearance in human microsomes; format: ADME, Microsome
[12] = target: T4, Prostaglandin G/H synthase 2 (Homo sapiens) (UniProt P35354); experiment: Inhibition of human recombinant COX2 assessed as reduction in PGH2-derived PGF2alpha production at 10 uM by enzyme immunoassay
T4 sequence (whole entry): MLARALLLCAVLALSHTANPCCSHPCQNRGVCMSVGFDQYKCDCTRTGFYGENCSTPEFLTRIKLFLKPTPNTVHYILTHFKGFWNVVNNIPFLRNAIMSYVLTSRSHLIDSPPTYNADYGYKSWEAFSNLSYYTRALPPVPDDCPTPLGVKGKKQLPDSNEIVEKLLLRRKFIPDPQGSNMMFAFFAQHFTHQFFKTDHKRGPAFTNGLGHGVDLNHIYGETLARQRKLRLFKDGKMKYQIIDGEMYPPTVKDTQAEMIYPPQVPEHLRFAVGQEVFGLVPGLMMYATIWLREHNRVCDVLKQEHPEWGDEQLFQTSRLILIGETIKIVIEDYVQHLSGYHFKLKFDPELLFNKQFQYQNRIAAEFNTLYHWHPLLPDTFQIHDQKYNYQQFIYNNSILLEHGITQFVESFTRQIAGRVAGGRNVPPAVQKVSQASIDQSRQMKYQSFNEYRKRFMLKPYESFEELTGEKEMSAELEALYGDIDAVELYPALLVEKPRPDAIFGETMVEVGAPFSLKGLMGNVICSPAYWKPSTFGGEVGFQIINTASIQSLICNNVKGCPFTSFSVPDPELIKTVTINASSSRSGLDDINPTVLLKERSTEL

[13] = target: Voltage-gated inwardly rectifying potassium channel KCNH2 (Homo sapiens, UniProt Q12809); experiment: Inhibition of human ERG
[14] = target: T3, Cytochrome P450 2C19; experiment: Inhibition of human CYP2C19; format: ADME
[15] = Aqueous solubility in pH 7.4 buffer; format: physicochemical
[16] = target: T2, Cytochrome P450 2C9; experiment: Inhibition of human CYP2C9; format: ADME
[17] = target: Cytochrome P450 1A2 (Homo sapiens, UniProt P05177); experiment: Inhibition of human CYP1A2 at 10 uM; format: ADME; conditions: 10 µM
[18] = target: T5, Prostaglandin G/H synthase 1 (Ovis aries) (UniProt P05979); experiment: Inhibition of ovine COX1 assessed as reduction in PGH2-derived PGF2alpha production at 10 uM by enzyme immunoassay
T5 sequence (whole entry): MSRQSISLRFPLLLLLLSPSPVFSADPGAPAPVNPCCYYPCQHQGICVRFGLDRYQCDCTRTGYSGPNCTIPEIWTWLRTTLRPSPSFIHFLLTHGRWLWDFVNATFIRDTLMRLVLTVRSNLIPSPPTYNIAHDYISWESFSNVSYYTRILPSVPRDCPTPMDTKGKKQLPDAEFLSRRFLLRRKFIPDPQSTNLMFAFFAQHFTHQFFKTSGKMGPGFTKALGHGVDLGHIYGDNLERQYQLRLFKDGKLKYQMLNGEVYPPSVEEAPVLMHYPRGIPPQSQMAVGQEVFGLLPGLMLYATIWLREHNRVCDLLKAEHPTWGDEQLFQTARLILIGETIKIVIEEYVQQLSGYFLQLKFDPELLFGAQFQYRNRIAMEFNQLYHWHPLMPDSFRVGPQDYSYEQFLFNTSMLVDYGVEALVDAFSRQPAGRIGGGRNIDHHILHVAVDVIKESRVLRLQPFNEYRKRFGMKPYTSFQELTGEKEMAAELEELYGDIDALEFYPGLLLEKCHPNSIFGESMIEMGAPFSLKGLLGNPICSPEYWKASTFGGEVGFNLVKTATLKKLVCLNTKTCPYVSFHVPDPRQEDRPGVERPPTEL

[19] = Aqueous solubility in pH 10 buffer; format: physicochemical
[20] = Protein binding in plasma (unknown origin); format: ADME, cell-free; conditions: read-out: PPB (converted)

T2 sequence (P11712 whole entry): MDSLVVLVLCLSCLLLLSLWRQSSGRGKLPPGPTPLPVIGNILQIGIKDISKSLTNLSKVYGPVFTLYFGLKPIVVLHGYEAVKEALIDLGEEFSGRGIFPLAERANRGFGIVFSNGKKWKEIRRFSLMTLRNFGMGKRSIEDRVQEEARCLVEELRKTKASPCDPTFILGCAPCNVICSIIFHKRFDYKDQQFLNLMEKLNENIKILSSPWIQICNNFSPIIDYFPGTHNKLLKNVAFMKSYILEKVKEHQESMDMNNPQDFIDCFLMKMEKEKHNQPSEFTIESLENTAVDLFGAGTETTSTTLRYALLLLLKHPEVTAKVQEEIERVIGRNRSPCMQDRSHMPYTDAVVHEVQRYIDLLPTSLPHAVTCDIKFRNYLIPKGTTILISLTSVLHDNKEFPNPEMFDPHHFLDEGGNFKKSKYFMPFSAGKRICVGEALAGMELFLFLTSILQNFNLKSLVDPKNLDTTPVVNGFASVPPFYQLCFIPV
T3 sequence (P33261 whole entry): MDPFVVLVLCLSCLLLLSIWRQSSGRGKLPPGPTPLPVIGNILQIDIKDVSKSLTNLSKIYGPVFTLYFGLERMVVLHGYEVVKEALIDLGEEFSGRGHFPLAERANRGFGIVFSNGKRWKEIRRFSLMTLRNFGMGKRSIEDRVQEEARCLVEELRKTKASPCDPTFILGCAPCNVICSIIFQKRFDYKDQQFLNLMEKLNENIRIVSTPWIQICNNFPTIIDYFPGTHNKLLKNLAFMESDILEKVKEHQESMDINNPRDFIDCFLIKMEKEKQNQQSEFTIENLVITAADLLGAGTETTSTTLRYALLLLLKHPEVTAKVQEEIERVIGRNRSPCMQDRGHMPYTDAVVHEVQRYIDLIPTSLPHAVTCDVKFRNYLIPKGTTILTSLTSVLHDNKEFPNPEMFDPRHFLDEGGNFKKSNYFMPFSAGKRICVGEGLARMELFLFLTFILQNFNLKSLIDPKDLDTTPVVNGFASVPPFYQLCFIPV
Sequence of Voltage-gated inwardly rectifying potassium channel KCNH2 (Q12809 whole entry): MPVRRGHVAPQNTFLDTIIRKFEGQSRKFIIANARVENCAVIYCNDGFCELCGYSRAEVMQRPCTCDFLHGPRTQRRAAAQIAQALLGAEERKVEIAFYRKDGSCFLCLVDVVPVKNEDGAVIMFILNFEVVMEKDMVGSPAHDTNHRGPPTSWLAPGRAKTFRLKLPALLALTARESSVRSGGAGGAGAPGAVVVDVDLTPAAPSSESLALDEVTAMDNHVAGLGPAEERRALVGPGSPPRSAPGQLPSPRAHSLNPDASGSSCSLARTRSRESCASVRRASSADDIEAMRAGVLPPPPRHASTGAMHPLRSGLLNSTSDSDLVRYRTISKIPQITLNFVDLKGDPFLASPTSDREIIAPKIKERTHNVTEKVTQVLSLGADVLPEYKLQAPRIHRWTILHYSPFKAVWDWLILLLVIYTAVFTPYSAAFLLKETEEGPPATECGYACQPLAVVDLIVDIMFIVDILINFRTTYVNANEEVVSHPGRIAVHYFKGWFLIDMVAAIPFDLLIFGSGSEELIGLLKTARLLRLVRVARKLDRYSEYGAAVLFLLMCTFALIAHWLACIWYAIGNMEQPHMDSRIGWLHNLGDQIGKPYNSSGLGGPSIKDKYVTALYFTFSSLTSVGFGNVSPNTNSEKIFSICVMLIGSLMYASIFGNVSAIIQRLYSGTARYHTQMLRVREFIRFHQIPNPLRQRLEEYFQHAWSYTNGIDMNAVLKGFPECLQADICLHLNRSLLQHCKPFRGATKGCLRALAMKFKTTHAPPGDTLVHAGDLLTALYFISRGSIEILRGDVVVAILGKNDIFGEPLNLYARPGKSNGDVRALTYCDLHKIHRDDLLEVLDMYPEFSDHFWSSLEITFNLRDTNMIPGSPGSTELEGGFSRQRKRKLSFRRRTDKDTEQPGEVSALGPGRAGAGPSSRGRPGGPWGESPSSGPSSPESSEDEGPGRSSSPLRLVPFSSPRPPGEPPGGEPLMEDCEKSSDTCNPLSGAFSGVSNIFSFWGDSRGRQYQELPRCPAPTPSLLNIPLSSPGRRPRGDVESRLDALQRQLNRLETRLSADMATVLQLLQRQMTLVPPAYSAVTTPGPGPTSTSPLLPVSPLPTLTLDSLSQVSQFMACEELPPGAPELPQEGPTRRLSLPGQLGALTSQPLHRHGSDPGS
Sequence of Cytochrome P450 1A2 (P05177 whole entry): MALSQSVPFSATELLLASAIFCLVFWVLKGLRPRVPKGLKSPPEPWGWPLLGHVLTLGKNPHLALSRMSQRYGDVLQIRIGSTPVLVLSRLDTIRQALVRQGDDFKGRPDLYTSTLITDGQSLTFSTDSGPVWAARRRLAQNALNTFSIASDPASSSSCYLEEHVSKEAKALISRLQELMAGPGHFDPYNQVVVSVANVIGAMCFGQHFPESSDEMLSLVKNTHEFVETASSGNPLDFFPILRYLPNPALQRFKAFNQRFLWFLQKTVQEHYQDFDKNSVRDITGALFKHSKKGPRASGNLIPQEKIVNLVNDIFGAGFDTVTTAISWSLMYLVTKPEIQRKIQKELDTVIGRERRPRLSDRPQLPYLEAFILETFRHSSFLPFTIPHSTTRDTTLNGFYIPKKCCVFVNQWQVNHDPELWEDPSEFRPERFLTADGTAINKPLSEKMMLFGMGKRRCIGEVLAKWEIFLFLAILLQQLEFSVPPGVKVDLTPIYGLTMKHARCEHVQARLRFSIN

Compound: CS(=O)(=O)Nc1c[nH]nc1C(=O)Nc1ccc(F)cc1Cl
- IC50 [1]: Not Active

Compound: O=C(NCc1ccccc1)c1cc[nH]n1
- IC50 [2]: Not Active

Compound: O=C(Nc1ccc2ccccc2n1)c1cc[nH]n1
- IC50 [3]: 92 nM
- solubility [4]: 573 µg/mL (≈ 2410 µM)
- permeability [5]: permeable
- Activity [6]: Non-toxic
- inhibition (INH) [7]: Not Active
- IC50 [8]: 0.18 µM
- inhibition (INH) [9]: Not Active
- half-life [10]: > 100 min
- microsomal CLint [11]: 7 µL/min/mg
- inhibition [12]: inactive
- inhibition (INH) [13]: Not Active
- IC50 [14]: Not Active
- solubility [15]: 10.1 µg/mL (≈ 42.4 µM)
- IC50 [16]: Not Active
- inhibition (INH) [17]: 75%
- inhibition [18]: 9%
- solubility [19]: 10.1 µg/mL (≈ 42.4 µM)
- fraction unbound [20]: 0.072

Compound: O=C(Nc1cccnc1)c1ccn[nH]1
- IC50 [1]: Not Active

Compound: O=C(Nc1ccccc1Cl)c1cn[nH]n1
- IC50 [3]: 392 nM
- IC50 [8]: 6.98 µM
